Data set [1] has as its system human GB cells (PD-GB4, U251, PD-GB 1, PD-GB3). Nature of the data set: 3D spheroid invasion in Matrigel, human GB cells co-cultured with human microglia. In kind it is cell-based. The method, then:
Tumor spheroids. Tumor spheroids were prepared from mCherry/iRFP/GFP-labeled patient-derived, human U251 or murine GB cells (GL261, iAGR53, PNp53, EGFRviii-shP16), either alone or co-cultured with unlabeled primary human/murine microglia (4:1 ratio), using our modified hanging-drop method, as we previously described. For assessment of cell invasion, GB spheroids (4,000 cells/sphere) were embedded in Matrigel (Corning), seeded in a 96-well plate, and incubated with complete DMEM or complete DMEM supplemented with SELPi (0.5 µM). […] For FACS analysis, GB spheroids (8,000 cells/sphere) were embedded in Matrigel, seeded in a 12-well plate, and treated with complete DMEM, 0% serum microglia medium or microglia CM for 24-48 h. Cells were then recovered using Cell Recovery Solution (Corning) and further analyzed by FACS.

The next data set deals with U251 and PD-GB4 GB cells. As to the kind of experiment: In vitro cytotoxicity of SELPi (annexin-FITC/PI apoptosis-necrosis staining). In kind it is cell-based, human. The method, then: (§1) Flow cytometry. For flow cytometry assays, cells were harvested using a cell scraper, and were then washed with PBS followed by additional washes with PBS supplemented with 1% BSA and 5 mM EDTA (FACS buffer). Tumor spheroids were recovered from Matrigel using Cell Recovery Solution (Corning) and washed with FACS buffer. To validate the purity of the microglia preparations, CD11b isolated cells or human microglia were incubated with TMEM119 and P2Y12-labeled antibodies for 1 h. For human TMEM119, primary antibody was unlabeled and cells were washed and incubated with secondary, Alexa 488 conjugated antibody. To assess P-Selectin and PSGL-1 expression, GB cells and microglia were seeded alone, co-cultured in a 2D petri dish, or grown as spheroids seeded in Matrigel. Cells were treated with control medium or CM for 48 h. They were then incubated with mouse anti-human P-Selectin antibody for 1 h on ice, and then were washed, and incubated with Alexa-488 labeled anti-mouse IgG binding protein for 1 h on ice. Alternatively, cells were incubated with rat anti-human PSGL antibody, and then were washed, and incubated with goat anti-rat, Alexa-488 labeled antibody for 1 h on ice. […] Fluorescence intensity was assessed using either an Attune flow cytometer (Life Technologies) or a Gallios™ flow cytometer (Beckman Coulter, USA) and the results were analyzed by Kaluza software (Beckman Coulter, USA).

A further data set concerns primary human microglia. Nature of the data set: Real-time PCR gene expression (ARG1, iNOS, IL-10, TGF-β) in microglia treated with rSELP. The data set is classed as cell-based. To be noted: added on top of rSELP; SELPi 0.5 µM, antibodies 2.5 µg/ml, 48 h. Here is the method:
To evaluate microglial expression of IL-10 TGF-β, ARG1 and iNOS by primary human microglia (1 × 10^6 cells), cells were seeded in PLL-coated plates. Twenty-four hours post-seeding cells were treated with: 0% serum DMEM alone, or exposed to rSELP (1.5 µg/ml), or exposed to rSELP and SELPi (0.5 µM), or exposed to rSELP and anti-PSGL-1 neutralizing antibody (2.5 µg/ml), or exposed to rSELP and anti-CD44 neutralizing antibody (2.5 µg/ml), or exposed to rSELP and anti-CD24 neutralizing antibody (2.5 µg/ml) for 48 h.
Real-time PCR. The expression level of target genes was assessed by SYBR green real-time PCR (StepOne plus, Life Technologies) and normalized to GAPDH housekeeping gene. Primers used were: […]
(Quantitative PCR measures a nucleic acid by following its amplification.)

For the next data set, the system named is human microglia. As to the kind of experiment: Flow cytometry of CD163 and CD206 expression by microglia. The data set is classed as cell-based. The following applies: PD-GB4 CM with rSELP, or SELPi added to PD-GB4 CM. Here is the method:
as §1

For another data set, the system named is iAGR53 tumors. As to the kind of experiment: SELPi treatment in murine mesenchymal iAGR53 GB model. The data set is classed as in vivo, C57BL/6 mice. The following applies: iAGR53, 16 mg/kg SELPi IV QOD. Here is the method:
Tumor volume was evaluated by MRI. […] Twelve days post cell inoculation, 3 mice per group were euthanized and brain were resected and further processed for histology analysis. […] Brain cannulas (NBT) were implanted intraventricularly in the co-lateral hemisphere and the mice were treated stereotactically via the cannulas (1 µl at 0.2 µl/min flow rate) with PBS, 2 mg/kg SELPi dissolved in DMSO or vehicle (DMSO). Three weeks post cell-inoculation, the mice were euthanized, the cannulas were removed, and tumor volume was evaluated by MRI (MR solutions). Brains were resected for immunostaining.
SELPi treatments. KF 38789 (SELPi) is a commercially-available P-Selectin inhibitor manufactured by Tocris BioScience. […] This compound is commonly used for research of immune-related processes such as tumor metastases formation. For the experiment described above, SELPi (0.8 mg/ml) was dissolved in DMSO (0.01%), polyethyleneglycol (93.2 mg/ml), Tween-80 (14.8 mg/ml) and DDW. Mice were injected with 16 mg/kg IV, twice a week, three times a week or QOD as described above. As control (vehicle), mice were injected with DMSO (0.01%), polyethyleneglycol (93.2 mg/ml), Tween-80 (14.8 mg/ml), in DDW at equivalent volume.
MRI imaging. Tumor bearing mice were imaged at the Sackler Cellular & Molecular Imaging Center (SCMIC), Tel Aviv University. […]

Entries after “also recorded” stand apart in the source; their conditions may differ.

`COc1ccc(C2CC(c3c(O)cc(C)oc3=O)=NCCS2)c(OC)c1` (centres unmarked) [SELPi, 3-[7-(2,4-Dimethoxyphenyl)-2,3,6,7-tetrahydro-1,4-thiazepin-5-yl]-4-hydroxy-6-methyl-2H-pyran-2-one]: in data set [1] (PD-GB4 GB cells with human microglia, 0.5 µM SELPi or SELP knockdown, 72 h), the 3D spheroid invasion entry was “reduced invasion”. Also, the “3D spheroid invasion, further human GB models” value in data set [1] (human U251, PD-GB 1, PD-GB3) is recorded as “effect of SELPi on GB spheroids was observed”. The toxicity entry in the data set with U251 and PD-GB4 GB cells (0.5 µM SELPi (working concentration)) was “no toxicity was observed”. Moreover, the “percentage of apoptotic cells” value in the data set with U251 and PD-GB4 GB cells (5 and 10 µM SELPi, 72 h) is listed as “slight increase in the percentage of apoptotic cells”. Besides, in the data set on primary human microglia, the “rescue of rSELP effects on ARG1, iNOS, IL-10, TGF-β expression” value is reported as “rescue the effects of rSELP; also recorded: rescued rSELP effects”. Also, the CD206 expression entry in the data set with human microglia is given as “reduced CD206 expression”. In the data set with iAGR53 tumors, the survival entry was “prolonged the survival” and the “tumor volume (MRI)” value is listed as “significant reduction in tumor volume; also recorded: reduced tumor growth”.

Source of the values: patent publication US20230303712A1, “METHODS OF TREATING GLIOBLASTOMA” (Ramot at Tel-Aviv University Ltd., priority 2020, published 2023).
